Source: patent US20220298143A1, “Pyrazole Derivatives for FGFR Inhibitor and Preparation Method Thereof” (Etern Biopharma (Shanghai) Co., Ltd., priority 2019, published 2022)

Tests used:
FGFR4 = molecular target: T1, FGFR4 (Homo sapiens, UniProt P22455); experiment: Enzymatic activity test of FGFR inhibitor, Caliper model; type: biochemical; conditions: Caliper, kinase pre-incubation 10 minutes; read-out: FGFR4
T1 construct: purchased Invitrogen PR4380A
Procedure: (§1) Enzymatic Activity Test of FGFR Inhibitor-Caliper Model
(§2) The specific operation steps were as follows:
(§3) The compound was first serially diluted in 5% DMSO solution, and 5 μL of the compound solution was added to a 384-well plate. The maximum final concentration of the compound is 1 μM, being diluted three times with 10 concentrations.
(§4) 10 μL of kinase solution was added to the 384-well plate and incubated at room temperature for 10 minutes;
(§5) 10 μL of P22 peptide and ATP solution were added to the 384-well plate, and 25 μL of reaction stop buffer was added after a specific time at 28° C.;
(§6) The data was collected in Caliper read and the inhibition rate was calculated according to inhibition rate=(max−conversion)/(max−min)*100, where max is DMSO control, conversion is the reading of the compound treated group, and min is the maximum inhibition control. IC50 value of the compound was calculated with XLfit excel add-in version 5.4.0.8 software.

[1] = molecular target: T2, FGFR1 (456-763) kinase domain protein (Homo sapiens, UniProt P11362); experiment: Confirmation of covalent bond formation between inhibitor and FGFR by mass spectrometry; type: binding
T2 construct: The purified FGFR1 (456-763) kinase domain protein
T2 sequence (P11362 456-763): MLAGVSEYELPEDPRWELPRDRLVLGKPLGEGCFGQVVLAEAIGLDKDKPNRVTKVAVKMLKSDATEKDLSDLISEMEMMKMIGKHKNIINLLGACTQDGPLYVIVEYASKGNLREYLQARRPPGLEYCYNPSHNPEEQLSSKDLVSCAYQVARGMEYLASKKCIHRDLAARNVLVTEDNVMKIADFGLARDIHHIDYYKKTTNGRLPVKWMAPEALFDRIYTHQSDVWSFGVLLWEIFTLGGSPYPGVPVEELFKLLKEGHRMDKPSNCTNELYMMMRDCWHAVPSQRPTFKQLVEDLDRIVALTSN
Procedure: Confirmation of the Formation of Covalent Bonds Between FGFR Irreversible Inhibitors and FGFR by Mass Spectrometry
For example, compound 1 was incubated with FGFR1, the molecular weight of the protein-compound complex was detected by mass spectrometry.
Operation steps: The purified FGFR1 (456-763) kinase domain protein was diluted with a protein buffer (20 mM Tris-HCL pH8.0, 150 mM Nacl) to a final concentration of about 20 μM (800 ng/μl). A 100 ul incubation system was used, wherein compound 1 with a final concentration of 100 μM was added to the experimental group with a molar ratio of the protein to compound of 1:5 and DMSO was added to the control group. The amount of DMSO was controlled in the two groups to be 1% by volume of the system. The experimental group and the control group were incubated on ice at the same time for 2 hours, and then diluted with 4 times volume of acetone at −20 overnight. After centrifugation at 16000×g for 10 minutes, the deposit was resuspended in 0.1% formic acid and loaded for mass spectrometry data collection.

FGFR2 = FGFR2 (Homo sapiens, UniProt P21802); experiment: Enzymatic activity test of FGFR inhibitor, Caliper model; type: biochemical; conditions: kinase pre-incubation 10 minutes
FGFR2, sequence (P21802 22-821): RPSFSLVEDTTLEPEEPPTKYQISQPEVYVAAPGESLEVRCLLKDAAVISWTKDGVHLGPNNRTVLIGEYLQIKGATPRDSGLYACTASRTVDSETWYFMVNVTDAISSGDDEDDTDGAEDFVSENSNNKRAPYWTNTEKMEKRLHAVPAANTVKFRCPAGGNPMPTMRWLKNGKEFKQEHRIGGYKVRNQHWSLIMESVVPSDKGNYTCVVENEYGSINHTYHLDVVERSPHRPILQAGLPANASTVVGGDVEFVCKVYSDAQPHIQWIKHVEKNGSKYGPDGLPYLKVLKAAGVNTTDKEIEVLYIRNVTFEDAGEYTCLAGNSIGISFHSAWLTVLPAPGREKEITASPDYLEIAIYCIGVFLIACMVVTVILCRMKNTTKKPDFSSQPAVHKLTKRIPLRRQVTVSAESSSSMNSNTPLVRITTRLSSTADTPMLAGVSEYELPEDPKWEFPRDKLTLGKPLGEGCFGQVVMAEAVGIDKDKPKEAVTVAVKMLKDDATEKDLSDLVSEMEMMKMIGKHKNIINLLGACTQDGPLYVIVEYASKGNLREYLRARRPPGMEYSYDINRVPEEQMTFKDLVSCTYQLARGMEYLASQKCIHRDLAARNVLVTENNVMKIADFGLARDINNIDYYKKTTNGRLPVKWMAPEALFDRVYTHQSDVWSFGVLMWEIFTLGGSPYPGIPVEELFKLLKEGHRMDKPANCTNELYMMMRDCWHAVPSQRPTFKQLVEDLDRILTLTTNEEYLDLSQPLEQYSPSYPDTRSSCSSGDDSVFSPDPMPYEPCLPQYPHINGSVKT
Procedure: as §1, §2, §3, §4, §5, §6

Hep3B cells = experiment: Human liver cancer cell Hep3B survival test (CellTiter-Glo); type: cell-based; conditions: 72 hours compound treatment
Procedure: Human Liver Cancer Cell Hep3B Survival Test
The human liver cancer Hep3B cell line was from ATCC. The cells were cultured in DMEM liquid medium, and fetal bovine serum (10% FBS) and penicillin-streptomycin (100,000 U/L) were added. The cells were kept at 37° C., 95% humidity and 5% carbon dioxide in the culture medium. During the experiment, Hep3B cells were seeded in a 96-well plate at a density of 3000 cells per well. The volume of the cell suspension was 100 μL per well, and the cells were cultured overnight to attach the cells. The next day, each compound was diluted with DMSO in a three-fold gradient, and 1 μL of the solution of the compound in DMSO was added to the cell culture medium. At the same time, 1 μL of DMSO was used as a control. Three parallel sub-wells were set for each concentration of each compound. Then the cells were placed in a 37° C. incubator. After 72 hours of continuous compound treatment, 50 μL CellTiter-Glo (Promega, Madison Wis.) was added to the cell culture medium. The relative luminescence unit (RLU) of each well was determined and the cell survival rate and compound activity (IC50) were calculated.

[2] = Compound pharmacokinetic experiment, single intragastric administration; type: in vivo; conditions: mouse, plasma, male mice, oral dosage 15 mg/Kg
Procedure: Compound Pharmacokinetic Experiment
The pharmacokinetics of the compounds of the present disclosure was determined. This application used the following methods to determine the pharmacokinetic parameters of the compounds.
For the healthy male adult mice used in the study, each group of animals was given a single intragastric administration of 5-100 mg/Kg. Fasting was from 10 hours before administration to 4 hours after administration. Blood was collected at different time points after administration, and the plasma content of the compound was determined (LC-MS/MS). The plasma concentration-time relationship was analyzed with professional software (winnonlin) to calculate the pharmacokinetic parameters of the compound.

FGFR3 = FGFR3 (Homo sapiens, UniProt P22607); experiment: Enzymatic activity test of FGFR inhibitor, Caliper model; type: biochemical; conditions: kinase pre-incubation 10 minutes
FGFR3, sequence (P22607 23-806): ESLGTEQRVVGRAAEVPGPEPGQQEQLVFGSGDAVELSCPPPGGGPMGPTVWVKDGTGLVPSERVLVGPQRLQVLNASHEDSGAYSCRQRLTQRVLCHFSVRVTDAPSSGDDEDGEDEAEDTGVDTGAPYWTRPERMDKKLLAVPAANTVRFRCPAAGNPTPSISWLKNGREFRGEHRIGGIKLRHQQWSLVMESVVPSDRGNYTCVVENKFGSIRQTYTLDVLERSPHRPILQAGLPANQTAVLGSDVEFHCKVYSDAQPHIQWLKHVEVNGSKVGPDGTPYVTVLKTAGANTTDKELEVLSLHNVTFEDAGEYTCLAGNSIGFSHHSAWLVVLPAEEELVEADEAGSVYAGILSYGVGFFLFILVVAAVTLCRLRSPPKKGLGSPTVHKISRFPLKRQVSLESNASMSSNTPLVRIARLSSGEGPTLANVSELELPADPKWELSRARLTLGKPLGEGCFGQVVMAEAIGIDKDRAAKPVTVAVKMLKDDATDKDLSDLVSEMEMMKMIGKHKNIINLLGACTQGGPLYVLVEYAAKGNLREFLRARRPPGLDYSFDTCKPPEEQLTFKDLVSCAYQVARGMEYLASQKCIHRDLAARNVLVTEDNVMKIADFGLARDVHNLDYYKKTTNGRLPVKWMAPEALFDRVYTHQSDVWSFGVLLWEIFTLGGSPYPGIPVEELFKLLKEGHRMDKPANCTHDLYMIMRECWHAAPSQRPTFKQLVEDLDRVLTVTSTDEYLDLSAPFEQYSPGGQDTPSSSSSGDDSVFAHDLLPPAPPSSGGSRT

FGFR1 = molecular target: T3, FGFR1 (Homo sapiens, UniProt P11362); experiment: as above; type: biochemical; conditions: Caliper, kinase pre-incubation 10 minutes; read-out: FGFR1
T3 construct: purchased Cama (sic; Carna) 08-133
T3 sequence (P11362 22-822): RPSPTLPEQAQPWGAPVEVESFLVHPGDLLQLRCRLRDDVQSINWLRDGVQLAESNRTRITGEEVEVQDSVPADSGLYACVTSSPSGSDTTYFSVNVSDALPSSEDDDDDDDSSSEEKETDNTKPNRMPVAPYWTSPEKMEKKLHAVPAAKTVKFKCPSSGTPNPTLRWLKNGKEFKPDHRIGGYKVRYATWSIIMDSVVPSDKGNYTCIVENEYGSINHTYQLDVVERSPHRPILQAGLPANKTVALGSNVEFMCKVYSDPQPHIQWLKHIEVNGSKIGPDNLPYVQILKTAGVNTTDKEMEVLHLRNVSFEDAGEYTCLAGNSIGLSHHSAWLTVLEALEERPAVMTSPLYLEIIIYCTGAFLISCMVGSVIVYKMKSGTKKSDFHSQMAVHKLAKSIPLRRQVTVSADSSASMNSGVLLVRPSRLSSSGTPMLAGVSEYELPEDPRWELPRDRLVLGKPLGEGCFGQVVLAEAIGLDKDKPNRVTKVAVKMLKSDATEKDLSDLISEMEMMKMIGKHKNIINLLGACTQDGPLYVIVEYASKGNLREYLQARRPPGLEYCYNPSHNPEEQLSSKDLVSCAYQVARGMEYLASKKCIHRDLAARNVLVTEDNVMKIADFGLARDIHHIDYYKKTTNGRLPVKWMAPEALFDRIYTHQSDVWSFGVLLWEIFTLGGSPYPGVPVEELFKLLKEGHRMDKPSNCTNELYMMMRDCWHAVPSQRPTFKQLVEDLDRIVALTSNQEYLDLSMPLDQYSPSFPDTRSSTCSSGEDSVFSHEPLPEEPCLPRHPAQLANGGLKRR
Procedure: as §1, §2, §3, §4, §5, §6

[3] = tested on: Human liver cancer Hep3B cells; experiment: Hep3B transplanted tumor model; type: in vivo, Balb/c nude mice; conditions: 21 days
Procedure: Hep3B Transplanted Tumor Model
Cell culture: Human liver cancer Hep3B cells were cultured in a monolayer in vitro. The culture conditions were 1640 medium with 10% fetal bovine serum, 100 U/mL penicillin and 100 μg/mL streptomycin, incubated at 37° C. in 5% CO2 incubator. Routine digestive passage was performed by pancreatin-EDTA twice a week. When the cell saturation was 80%-90% and the number reached the requirement, the cells were collected, counted, and inoculated.
Animals: Balb/c nude mice, female, 6-8 weeks old, weighing 18-22 grams, provided by Shanghai Slack Laboratory Animal Co., Ltd. or other qualified suppliers.
Tumor inoculation: 0.2 mL (10×106+Matrixgel) Hep3B cells were subcutaneously inoculated on the right back of each mouse, and group administration was started when the average tumor volume reached about 140-200 mm^3.
Administration: compound prescription (0.5% MC+0.5% Tween 80) was made with administration dose of 0.3 mg/Kg, 1 mg/Kg, 2 mg/Kg, 3 mg/Kg, intragastric administration twice a day continuously for 21 days.
Experimental indicators: to investigate whether tumor growth was inhibited, delayed or cured, the tumor diameter was measured with a vernier caliper three times a week. The calculation formula for tumor volume is: V=0.5a×b2, where a and b represent the long diameter and short diameter of the tumor, respectively. The anti-tumor efficacy of the compound was evaluated by TGI (%). TGI (%) reflected the tumor growth inhibition rate.

[4] = 100 μM compound, about 20 μM protein, 2 hours on ice

T1 sequence (P22455 22-802): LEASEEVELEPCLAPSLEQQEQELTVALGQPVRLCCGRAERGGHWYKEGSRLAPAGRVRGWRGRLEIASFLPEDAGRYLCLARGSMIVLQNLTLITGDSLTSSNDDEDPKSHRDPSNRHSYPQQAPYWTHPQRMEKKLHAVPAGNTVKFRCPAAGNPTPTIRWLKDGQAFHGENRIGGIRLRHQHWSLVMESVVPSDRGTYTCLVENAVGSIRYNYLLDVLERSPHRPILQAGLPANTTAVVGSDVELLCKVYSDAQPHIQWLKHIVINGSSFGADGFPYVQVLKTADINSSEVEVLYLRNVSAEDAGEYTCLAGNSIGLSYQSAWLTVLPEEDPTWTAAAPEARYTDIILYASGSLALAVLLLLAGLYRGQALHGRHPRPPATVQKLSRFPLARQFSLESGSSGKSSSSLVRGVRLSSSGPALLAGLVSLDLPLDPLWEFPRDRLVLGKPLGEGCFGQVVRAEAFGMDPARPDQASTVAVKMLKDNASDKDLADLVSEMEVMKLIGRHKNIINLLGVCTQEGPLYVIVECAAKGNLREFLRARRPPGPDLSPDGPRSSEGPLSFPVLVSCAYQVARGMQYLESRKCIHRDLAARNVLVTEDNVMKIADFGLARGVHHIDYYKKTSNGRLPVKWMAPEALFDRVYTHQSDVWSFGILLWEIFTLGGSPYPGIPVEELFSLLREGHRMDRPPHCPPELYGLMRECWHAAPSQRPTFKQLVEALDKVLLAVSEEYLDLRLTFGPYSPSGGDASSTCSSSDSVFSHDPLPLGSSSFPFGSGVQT

IC50 (FGFR4): 1.2 nM | average molecular weight of protein-compound complex [1, 4]: 36345.5 Da | Δmolecular weight (complex versus DMSO + FGFR1) [1, 4]: 598 | formation of covalent bond with FGFR1 protein ([1]; mass spectrometry): formed an irreversible covalent bond | IC50 (FGFR2): 1.8 nM | Cmax ([2]; read-out: Peak plasma concentration Cmax): 1220 nM | AUC ([2]; read-out: Plasma exposure AUC): 2.27 µM·h | IC50 (FGFR3): 3.3 nM | IC50 (FGFR1): 1.9 nM
SMILES: C=CC(=O)Nc1cc(N2CCN(CCC(F)(F)F)CC2)ccc1C(=O)Nc1cc(CCc2cc(OC)cc(OC)c2)n[nH]1 [Compound 1, 2-acrylamide-N-(3-(3,5-dimethoxyphenethyl)-1H-pyrazol-5-yl)-4-(4-(3,3,3-trifluoropropyl)piperazin-1-yl) benzamide]
IC50 (Hep3B cells): 1.4 nM | TGI % ([3]; 0.3 mpk oral twice a day): 17% | TGI % ([3]; 1 mpk oral twice a day): 50% | TGI % ([3]; 2 mpk oral twice a day): 100% | TGI % ([3]; 3 mpk oral twice a day): 108%
